Measurements published in PMC10094136, “Neurog1-Derived Peptides RMNE1 and DualPep-Shine Penetrate the Skin and Inhibit Melanin Synthesis by Regulating MITF Transcription” (International Journal of Molecular Sciences, 2023).
Where a SMILES comes first, the peptide text is derived from it.

Key:
THP-1 cells = test: TNF-α secretion ELISA in PMA-differentiated THP-1 cells (immunogenicity); format: cell-based; details: PMA-differentiated THP-1, up to 100 μM, 24 h
Description: (§1) (A) B16F10 and HaCaT cells were treated with the indicated concentration of DualPep-Shine for 72 h, and relative cell viability was measured using Cell Counting Kit 8 (CCK8) assay. Doxorubicin was used for positive control. (B) Phorbol 12-myristate 13-acetate (PMA)-differentiated THP-1 cells were treated with different concentrations of DualPep-Shine for 24 h. TNF-α from supernatants was measured using the enzyme-linked immunosorbent assay (ELISA). (C) DualPep-Shine was incubated with indicated temperature conditions for 45 days. B16F10 cells were treated with different concentrations for 72 h, and melanin contents were measured at OD 405 nm. The results are presented as mean ± SD, and statistical significance was analyzed with Student’s t-test (NS: not significant, *** p < 0.001).

HaCaT cells = test: Cell viability CCK-8 assay, HaCaT; format: cell-based; details: up to highest concentration, 72 h (legend; method says 24 h), CCK8
Description: as §1
(§2) Cell viability was measured using a CCK-8 assay (Dojindo, Tokyo, Japan). HaCaT and B16F10 cells were cultured in a 96-well plate at a 6 × 10^3 cells/well and incubated in a complete medium at 37 °C with 5% CO2 overnight. Each cell type was treated with different concentrations of peptides for 24 h. After removing the medium, CCK-8 solution was added in a dark room at 37 °C. Absorbance was measured at 450 nm using a microplate reader.

B16F10 cells [1] = test: Localization of penetrated peptide by confocal microscopy; format: cell-based; details: B16F10, FITC-conjugated peptide, 2 h, Hoechst 33342 nucleus staining
Description: Figure 3 DualPep-Shine regulates the expression of melanogenic genes and inhibits the promoter activity of MITF-M. (A) B16F10 cells were treated with various concentrations of DualPep-Shine for 72 h. Melanin contents were determined at OD 405 nm. (B) DualPep-Shine was treated with α-MSH for 24 h, and whole-cell lysates were subjected to Western blotting. Indicated antibodies were used to analyze melanogenic proteins. (C) mRNA levels of MITF, Tyr, TRP1, and TRP2 were analyzed using quantitative polymerase chain reaction (qPCR) after treatment with DualPep-Shine for 12 h. The gene expression was normalized with β-actin. (D) FITC-conjugated DualPep-Shine was treated for 2 h on B16F10 cells, and its localization was visualized using confocal microscopy. Hoechst 33342 was used for nucleus staining. Bar = 10 μm. […] The results are presented as mean ± SD, and statistical significance was analyzed with Student’s t-test (** p < 0.01, *** p < 0.001).
B16F10 cells were seeded in a 24-well plate and treated with 2.5 μM of FITC conjugated TAT, RMNE1, or DualPep-Shine for 2 h. […] Penetrated peptides were evaluated via flow cytometry by measuring FITC levels. […] The cells were washed again with PBS five times, mounted on a slide glass using gel/mount solution (Biomeda, Foster City, CA, USA), and the penetrated peptides were visualized using a fluorescence microscope. […]

[2] = Storage stability of peptide, read out as anti-melanin activity in B16F10 cells; format: physicochemical; details: peptide stored at −20 °C, 25 °C and 37 °C for 45 days; then B16F10 72 h, melanin at OD 405 nm
Description: as §1
B16F10 cells (1 × 10^5) were seeded in a 24-well plate and incubated for 16 h. The cells were treated with α-MSH (Sigma-Aldrich, Darmstadt, Germany) and peptides for 72 h. The cells were incubated at 37 °C in 5% CO2. […] Then, melanin levels were determined by measuring the absorbance at 405 nm using a microplate reader. […] B16F10 cells were then treated with different concentrations of peptides, and melanin contents were measured to check the stability of DualPep-Shine.

B16F10 cells [3] = test: Cell viability CCK-8 assay, B16F10; format: cell-based; details: B16F10, up to highest concentration, 72 h (legend; method says 24 h), CCK8
Description: as §1, §2

- Intracellular localization (B16F10 cells [1]): mainly localized in the nucleus
- Anti-pigmentation activity after pre-incubation (stability) [2]: maintained
Structure (SMILES): C[C@@H](O)[C@H](NC(=O)[C@H](CCCNC(=N)N)NC(=O)CNC(=O)[C@H](CCCNC(=N)N)NC(=O)[C@H](CCCNC(=N)N)NC(=O)[C@H](CCCNC(=N)N)NC(=O)[C@H](CCCNC(=N)N)NC(=O)[C@H](CCCNC(=N)N)NC(=O)[C@H](CCC(=O)O)NC(=O)[C@H](CCC(N)=O)NC(=O)[C@H](CCC(=O)O)NC(=O)[C@@H](N)CC(=O)O)C(=O)N[C@@H](CCCNC(=N)N)C(=O)O [DualPep-Shine] (H-DEQERRRRRGRTR-OH)
- TNF-α secretion (immunogenicity) (THP-1 cells): did not induce tumor necrosis factor α (TNF-α) secretion
- Cell viability (HaCaT cells): not affected
- Cell viability (B16F10 cells [3]): not affected
